Results from patent US10059713B2 (Takeda Pharmaceutical Company Limited, priority 2014, dated 2018).
pEC50: −log10 of the molar value.

target: human GPR43 (Homo sapiens (Human), UniProt O15552); experiment: Ca-Flux functional assay: determination of agonist/positive allosteric modulator (PAM) activity; assay type: cell-based; settings: CHO-K1 Gα16 cells stably expressing human GPR43; compound added with EC20 sodium acetate; intracellular Ca2+ by FLIPR; does not distinguish agonist from PAM
Outline: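 Agonist or PAM activity read as intracellular Ca2+ rise by FLIPR after adding compound plus EC20 acetate, acetate EC20 set from a prior curve. Cells: CHO-K1 Gα16 with stable human GPR43. EC50 from ten-point half-log curves starting 10 μM.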

human GPR43, sequence (O15552 whole entry): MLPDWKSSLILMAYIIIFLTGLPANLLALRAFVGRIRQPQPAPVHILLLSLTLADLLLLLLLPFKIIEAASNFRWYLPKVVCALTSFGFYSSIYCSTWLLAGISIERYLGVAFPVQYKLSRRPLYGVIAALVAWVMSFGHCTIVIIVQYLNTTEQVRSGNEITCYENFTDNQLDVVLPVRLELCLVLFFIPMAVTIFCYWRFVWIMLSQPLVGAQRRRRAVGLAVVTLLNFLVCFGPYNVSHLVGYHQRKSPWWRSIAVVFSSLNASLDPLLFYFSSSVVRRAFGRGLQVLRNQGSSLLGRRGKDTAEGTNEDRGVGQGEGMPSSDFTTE

SMILES	pEC50
Cc1nc(N2CCOC3(CC3)C2)c2[nH]c(N)c(S(=O)(=O)c3cccc(F)c3)c2n1 [Example 192, 7-(3-fluorobenzenesulfonyl)-2-methyl-4-{4-oxa-7-azaspiro[2.5]octan-7-yl}-5H-pyrrolo[3,2-d]pyrimidin-6-amine]	7.51
COc1ccc(S(=O)(=O)c2c(N)[nH]c3c(N4CCOC(C)(C)C4)nc(C)nc23)cc1 [Example 204, 4-(2,2-dimethylmorpholin-4-yl)-7-(4-methoxybenzenesulfonyl)-2-methyl-5H-pyrrolo[3,2-d]pyrimidin-6-amine]	7.82
Cc1nc(N2CCO[C@@H](C(F)(F)F)C2)c2[nH]c(N)c(S(=O)(=O)c3cc(F)ccc3F)c2n1 [Example 291]	8.52
COc1ccc(S(=O)(=O)c2c(N)[nH]c3c(N4CCC(F)(F)CC4)ncnc23)cc1 [Example 68, 4-(4,4-difluoropiperidin-1-yl)-7-(4-methoxybenzenesulfonyl)-5H-pyrrolo[3,2-d]pyrimidin-6-amine]	7.49
Nc1[nH]c2c(OCC3CC3(F)F)ncnc2c1S(=O)(=O)c1ccccc1 (stereo not shown) [Example 175, 7-(benzenesulfonyl)-4-[(2,2-difluorocyclopropyl)methoxy]-5H-pyrrolo[3,2-d]pyrimidin-6-amine]	6.43
Cc1nc(OC2CCCOC2(C)C)c2[nH]c(N)c(S(=O)(=O)c3ccccc3F)c2n1 (stereo not shown) [Example 296, 4-[(2,2-dimethyloxan-3-yl)oxy]-7-(2-fluorobenzenesulfonyl)-2-methyl-5H-pyrrolo[3,2-d]pyrimidin-6-amine]	7.28
Cc1nc(N2C[C@@H](C)O[C@@H](C)C2)c2[nH]c(N)c(S(=O)(=O)c3cccc(F)c3)c2n1 [Example 179, 4-[(2R,6S)-2,6-dimethylmorpholin-4-yl]-7-(3-fluorobenzenesulfonyl)-2-methyl-5H-pyrrolo[3,2-d]pyrimidin-6-amine]	7.74
CN(CC1OCCO1)c1ncnc2c(S(=O)(=O)c3ccccc3)c(N)[nH]c12 [Example 93, 7-(benzenesulfonyl)-4-N-(1,3-dioxolan-2-ylmethyl)-4-N-methyl-5H-pyrrolo[3,2-d]pyrimidine-4,6-diamine]	5.02
COc1ccc(S(=O)(=O)c2c(N)[nH]c3c(N4CCOC(C)C4)ncnc23)cc1 (stereo not shown) [Example 107, 7-(4-methoxybenzenesulfonyl)-4-(2-methylmorpholin-4-yl)-5H-pyrrolo[3,2-d]pyrimidin-6-amine]	7.39
CC1CN(c2ncnc3c(Sc4ccccc4)c(N)[nH]c23)CCO1 (stereo not shown) [Example 236, 4-(2-methylmorpholin-4-yl)-7-(phenylsulfanyl)-5H-pyrrolo[3,2-d]pyrimidin-6-amine]	7.38
Nc1[nH]c2c(OCC3CCCOC3)ncnc2c1S(=O)(=O)c1ccccc1 (stereo not shown) [Example 157, 7-(benzenesulfonyl)-4-(oxan-3-ylmethoxy)-5H-pyrrolo[3,2-d]pyrimidin-6-amine]	5.80
Cc1nc(N2CCOC(C)(C)C2)c2[nH]c(N)c(S(=O)(=O)c3cc(F)ccc3F)c2n1 [Example 288, 7-(2,5-difluorobenzenesulfonyl)-4-(2,2-dimethylmorpholin-4-yl)-2-methyl-5H-pyrrolo[3,2-d]pyrimidin-6-amine]	8.10
Nc1[nH]c2c(Br)cncc2c1S(=O)(=O)c1ccccc1 [Example 77, 3-(benzenesulfonyl)-7-bromo-1H-pyrrolo[3,2-c]pyridin-2-amine]	6.20
Cc1nc(N2CCOC(C)(C)C2)c2[nH]c(N)c(S(=O)(=O)c3ccccc3)c2n1 [Example 139, 7-(benzenesulfonyl)-4-(2,2-dimethylmorpholin-4-yl)-2-methyl-5H-pyrrolo[3,2-d]pyrimidin-6-amine]	7.89
Cc1csc(COc2ncnc3c(S(=O)(=O)c4ccccc4)c(N)[nH]c23)n1 [Example 161, 7-(benzenesulfonyl)-4-[(4-methyl-1,3-thiazol-2-yl)methoxy]-5H-pyrrolo[3,2-d]pyrimidin-6-amine]	5.85
Cc1nc(N2CCOC(C)C2)c2[nH]c(N)c(S(=O)(=O)c3ccccc3F)c2n1 (stereo not shown) [Example 176, 7-(2-fluorobenzenesulfonyl)-2-methyl-4-(2-methylmorpholin-4-yl)-5H-pyrrolo[3,2-d]pyrimidin-6-amine]	8.10
Nc1[nH]c2c(N3CCCOCC3)ncnc2c1S(=O)(=O)c1ccccc1 [Example 82, 7-(benzenesulfonyl)-4-(1,4-oxazepan-4-yl)-5H-pyrrolo[3,2-d]pyrimidin-6-amine]	5.94
Cc1nc(N2CCCC(C)C2)c2[nH]c(N)c(S(=O)(=O)c3cccc(F)c3)c2n1 (stereo not shown) [Example 198, 7-(3-fluorobenzenesulfonyl)-2-methyl-4-(3-methylpiperidin-1-yl)-5H-pyrrolo[3,2-d]pyrimidin-6-amine]	7.51
COc1ccc(S(=O)(=O)c2c(N)[nH]c3c(C4CCCCC4)ncnc23)cn1 [Example 44, 4-cyclohexyl-7-(6-methoxypyridine-3-sulfonyl)-5H-pyrrolo[3,2-d]pyrimidin-6-amine]	6.76
CNc1nc(N2CCOC(C)C2)c2[nH]c(N)c(S(=O)(=O)c3ccccc3F)c2n1 (stereo not shown) [Example 298, 7-(2-fluorobenzenesulfonyl)-N2-methyl-4-(2-methylmorpholin-4-yl)-5H-pyrrolo[3,2-d]pyrimidine-2,6-diamine]	8.30
Cc1nc(OCC2CC2(C)C)c2[nH]c(N)c(S(=O)(=O)c3ccccc3)c2n1 (stereo not shown) [Example 245, 7-(benzenesulfonyl)-4-[(2,2-dimethylcyclopropyl)methoxy]-2-methyl-5H-pyrrolo[3,2-d]pyrimidin-6-amine]	7.24
Nc1[nH]c2c(O[C@H]3CCOC3)ncnc2c1S(=O)(=O)c1ccccc1 [Example 158, 7-(benzenesulfonyl)-4-[(3S)-oxolan-3-yloxy]-5H-pyrrolo[3,2-d]pyrimidin-6-amine]	5.51
